Assay results as given in patent US8802711B2, “TRPV1 antagonists” (AbbVie Inc., priority 2011, dated 2014).

What was measured:
[1] = biological target: T1, human TRPV1 receptor (hTRPV1) (Homo sapiens (Human), UniProt Q8NER1); test: Capsaicin activation assay (FLIPR intracellular Ca2+); assay type: cell-based; details: Table 1; inhibition of capsaicin-induced intracellular Ca2+ increase, HEK293 cells expressing human TRPV1; read-out: hTRPV1 cap IC50
Summary of the method: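 HEK293 cells stably expressing human TRPV1, loaded with Calcium-4 dye 90–120 min at room temperature, preincubated 3 min with compound (12-point one-third-log range) before capsaicin (200 nM as 4× solution). Peak FLIPR fluorescence minus baseline expressed as percent of 50 nM capsaicin control response.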

[2] = biological target: T1, human TRPV1 receptor (hTRPV1); test: Acid activation assay (pH 5.0, FLIPR intracellular Ca2+); assay type: cell-based; details: Table 1, 37.5 μM antagonist, percentage of the maximal pH 5.0-induced response remaining; for remaining activity at 37.5 µM: read-out: hTRPV1 H+ (max % remain)
Summary of the method: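 1321N1 astrocytoma cells stably expressing homomeric hTRPV1, loaded with Calcium-4 dye 90–120 min at 25 °C. Compounds, 12-point half-log range, added 3 min before pH 5.0 DPBS/MES challenge; intracellular Ca2+ read by FLIPR fluorescence.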

T1 sequence (Q8NER1 whole entry): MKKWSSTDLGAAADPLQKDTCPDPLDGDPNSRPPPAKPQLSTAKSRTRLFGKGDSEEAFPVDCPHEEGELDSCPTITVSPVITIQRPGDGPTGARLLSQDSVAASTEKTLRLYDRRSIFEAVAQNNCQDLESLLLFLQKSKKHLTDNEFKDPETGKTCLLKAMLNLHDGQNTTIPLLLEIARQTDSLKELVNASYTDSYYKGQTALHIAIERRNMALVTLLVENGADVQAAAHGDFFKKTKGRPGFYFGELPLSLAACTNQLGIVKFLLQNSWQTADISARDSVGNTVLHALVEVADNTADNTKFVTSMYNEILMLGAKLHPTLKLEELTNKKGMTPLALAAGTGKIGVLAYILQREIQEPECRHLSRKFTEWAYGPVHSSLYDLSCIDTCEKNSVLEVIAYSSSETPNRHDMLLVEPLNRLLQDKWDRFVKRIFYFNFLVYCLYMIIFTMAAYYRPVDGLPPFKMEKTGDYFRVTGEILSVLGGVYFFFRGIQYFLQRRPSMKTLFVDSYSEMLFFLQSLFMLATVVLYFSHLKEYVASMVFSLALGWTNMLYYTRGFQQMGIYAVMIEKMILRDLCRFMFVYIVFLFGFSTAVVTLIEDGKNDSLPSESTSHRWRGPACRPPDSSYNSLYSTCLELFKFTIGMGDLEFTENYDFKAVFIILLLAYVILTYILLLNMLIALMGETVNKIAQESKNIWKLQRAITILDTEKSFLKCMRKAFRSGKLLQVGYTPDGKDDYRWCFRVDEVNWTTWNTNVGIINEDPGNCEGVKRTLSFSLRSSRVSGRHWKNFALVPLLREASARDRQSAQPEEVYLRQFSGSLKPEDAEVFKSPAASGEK

Row | IC50 [1] | remaining activity at 37.5 µM [2] | hTRPV1 H+ (max % remain) [2] | Compound
1 | 13 nM | 60% |  | Cc1cc2c(NC(=O)N[C@H]3CC[C@H](c4ccccc4)C3)c(F)ccc2cn1 [Example 13, 1-(6-fluoro-3-methylisoquinolin-5-yl)-3-[(1S,3S)-3-phenylcyclopentyl]urea]
2 | 20 nM | 16% |  | O=C(Nc1cccc2c1C[C@@H](O)C2)N[C@@H]1CC[C@@H](c2ccccc2F)C1 [Example 88, 1-[(1R,3R)-3-(2-fluorophenyl)cyclopentyl]-3-[(2S)-2-hydroxy-2,3-dihydro-1H-inden-4-yl]urea]
3 | > 37500 nM | 77% |  | CN1C(=O)CCc2ccc(NC(=O)N[C@@H]3CC[C@@H](c4cccc(F)c4)C3)cc21 [Example 107, 1-[(1R,3R)-3-(3-fluorophenyl)cyclopentyl]-3-(1-methyl-2-oxo-1,2,3,4-tetrahydroquinolin-7-yl)urea]
4 | > 37500 nM | 72% |  | CN1C(=O)CCc2ccc(NC(=O)N[C@H]3CC[C@@H](c4ccccc4F)C3)cc21 [Example 110, 1-[(1S,3R)-3-(2-fluorophenyl)cyclopentyl]-3-(1-methyl-2-oxo-1,2,3,4-tetrahydroquinolin-7-yl)urea]
5 | > 37500 nM | 46% |  | O=C(Nc1cccc2c(Cl)nccc12)N[C@@H]1CC[C@H](c2ccccc2)C1 [Example 136, 1-(1-chloroisoquinolin-5-yl)-3-[(1R,3S)-3-phenylcyclopentyl]urea]
6 | 8640 nM |  | 53% | O=C(Nc1cccc2[nH]ncc12)N[C@H]1CC[C@@](O)(c2ccccc2)C1 (relative stereo) [Example 58, 1-[(trans)-3-hydroxy-3-phenylcyclopentyl]-3-(1H-indazol-4-yl)urea]
7 | 3.5 nM | 44% |  | Cc1cc2c(NC(=O)N[C@H]3CC[C@H](c4cccc(F)c4)C3)c(F)ccc2cn1 [Example 74, 1-(6-fluoro-3-methylisoquinolin-5-yl)-3-[(1S,3S)-3-(3-fluorophenyl)cyclopentyl]urea]
8 | 930 nM | 48% |  | O=C(Nc1ccc2c(c1)NC(=O)N(CCO)C2)N[C@H]1CC[C@@H](c2cccc(F)c2)C1 [Example 116, 1-[(1S,3R)-3-(3-fluorophenyl)cyclopentyl]-3-[3-(2-hydroxyethyl)-2-oxo-1,2,3,4-tetrahydroquinazolin-7-yl]urea]
9 | 179 nM | 20% |  | O=C(Nc1cccc2c1C[C@H](O)C2)N[C@@H]1CC[C@@H](c2ccccc2)C1 [Example 15, 1-[(2R)-2-hydroxy-2,3-dihydro-1H-inden-4-yl]-3-[(1R,3R)-3-phenylcyclopentyl]urea]
10 | 13 nM | 2% |  | O=C(Nc1cccc2c1C[C@@H](O)CC2)N[C@H]1CC[C@H](c2ccccc2)C1 [Compound D, 1-[(7S)-7-hydroxy-5,6,7,8-tetrahydronaphthalen-1-yl]-3-[(1S,3S)-3-phenylcyclopentyl]urea, reference compound]
11 | > 37500 nM | 39% |  | O=C(Nc1ccc2c(c1)NCCO2)N[C@@H]1CC[C@H](c2ccccc2)C1 [Example 146, 1-(3,4-dihydro-2H-1,4-benzoxazin-6-yl)-3-[(1R,3S)-3-phenylcyclopentyl]urea]
12 | 14 nM | 10% |  | O=C(Nc1cccc2[nH]ncc12)N[C@H]1C[C@@H](c2ccccc2)C1 [Example 56, 1-(1H-indazol-4-yl)-3-(cis-3-phenylcyclobutyl)urea]
13 | 8 nM | 12% |  | O=C(Nc1cccc2[nH]ncc12)N[C@@H]1CC[C@H](c2cccc(F)c2)C1 [Example 65, 1-[(1R,3S)-3-(3-fluorophenyl)cyclopentyl]-3-(1H-indazol-4-yl)urea]
14 | 21 nM | 16% |  | Cc1cc2c(NC(=O)N[C@@H]3CC[C@@](C)(c4ccccc4)C3)c(F)ccc2cn1 [Example 75, 1-(6-fluoro-3-methylisoquinolin-5-yl)-3-[(1R,3R)-3-methyl-3-phenylcyclopentyl]urea]
15 | 97 nM | 42% |  | Cn1ncc2c(NC(=O)N[C@H]3CC[C@@H](c4ccccc4F)C3)cccc21 [Example 104, 1-[(1S,3R)-3-(2-fluorophenyl)cyclopentyl]-3-(1-methyl-1H-indazol-4-yl)urea]
16 | 324 nM | 40% |  | Cc1cc2c(NC(=O)N[C@@H]3CC[C@H](c4nc(C)cs4)C3)c(F)ccc2cn1 [Example 132, 1-(6-fluoro-3-methylisoquinolin-5-yl)-3-[(1R,3S)-3-(4-methyl-1,3-thiazol-2-yl)cyclopentyl]urea]
17 | 78 nM | 1% |  | COc1ccc(C2CCC(NC(=O)Nc3cccc4[nH]ncc34)C2)cc1 (stereo not drawn) [Example 40, 1-(1H-indazol-4-yl)-3-[3-(4-methoxyphenyl)cyclopentyl]urea]

Row | IC50 [1] | remaining activity at 37.5 µM [2] | hTRPV1 H+ (max % remain) [2] | Compound
18 | 80 nM | 87% |  | O=C(Nc1cccc2c1C[C@@H](O)C2)N[C@@H]1CC[C@@H](c2ccccc2)C1 [Example 16, 1-[(2S)-2-hydroxy-2,3-dihydro-1H-inden-4-yl]-3-[(1R,3R)-3-phenylcyclopentyl]urea]
19 | 14 nM | 19% |  | Cn1ncc2c(NC(=O)N[C@@H]3CC[C@@H](c4ccccc4F)C3)cccc21 [Example 103, 1-[(1R,3R)-3-(2-fluorophenyl)cyclopentyl]-3-(1-methyl-1H-indazol-4-yl)urea]
20 | 25 nM | 43% |  | CN1C(=O)CCc2c(NC(=O)N[C@H]3CC[C@@H](c4ccccc4F)C3)cccc21 [Example 100, 1-[(1S,3R)-3-(2-fluorophenyl)cyclopentyl]-3-(1-methyl-2-oxo-1,2,3,4-tetrahydroquinolin-5-yl)urea]
21 | 2 nM | 9% |  | Cc1cc2c(NC(=O)N[C@@H]3CC[C@H](c4cccc(F)c4)C3)c(F)ccc2cn1 [Example 76, 1-(6-fluoro-3-methylisoquinolin-5-yl)-3-[(1R,3S)-3-(3-fluorophenyl)cyclopentyl]urea]
22 | 331 nM | 72% |  | O=C(Nc1cccc2c1C[C@H](O)C2)N[C@H]1C[C@@H](c2ccccc2)C1 [Example 60, 1-[(2R)-2-hydroxy-2,3-dihydro-1H-inden-4-yl]-3-(cis-3-phenylcyclobutyl)urea]
23 | 804 nM | 47% |  | O=C(Nc1ccc2c(c1)NC(=O)N(CCO)C2)N[C@H]1CC[C@@H](c2ccccc2F)C1 [Example 117, 1-[(1S,3R)-3-(2-fluorophenyl)cyclopentyl]-3-[3-(2-hydroxyethyl)-2-oxo-1,2,3,4-tetrahydroquinazolin-7-yl]urea]
24 | 427 nM | 6% |  | CC(C)(C)c1ccc(C2CCC(NC(=O)Nc3cccc4[nH]ncc34)C2)cc1 (stereo not drawn) [Example 37, 1-[3-(4-tert-butylphenyl)cyclopentyl]-3-(1H-indazol-4-yl)urea]
25 | 93 nM | 55% |  | O=C(Nc1cccc2c1C[C@H](O)C2)N[C@H]1CC[C@@H](c2ccccc2F)C1 [Example 93, 1-[(1S,3R)-3-(2-fluorophenyl)cyclopentyl]-3-[(2R)-2-hydroxy-2,3-dihydro-1H-inden-4-yl]urea]
26 | 56 nM | 8% |  | O=C(Nc1cccc2[nH]ncc12)N[C@@H]1CCC[C@H](c2ccccc2)C1 [Example 36, 1-(1H-indazol-4-yl)-3-[(1R,3S)-3-phenylcyclohexyl]urea]
27 | 218 nM | 34% |  | Cn1ncc2c(NC(=O)N[C@H]3CC[C@@H](c4cccc(F)c4)C3)cccc21 [Example 102, 1-[(1S,3R)-3-(3-fluorophenyl)cyclopentyl]-3-(1-methyl-1H-indazol-4-yl)urea]
28 | 956 nM | 91% |  | CN1C(=O)CCc2ccc(NC(=O)N[C@H]3CC[C@@H](c4ccccc4)C3)cc21 [Example 105, 1-(1-methyl-2-oxo-1,2,3,4-tetrahydroquinolin-7-yl)-3-[(1S,3R)-3-phenylcyclopentyl]urea]
29 | 5 nM | 6% |  | O=C(Nc1cccc2c1C[C@@H](O)CC2)N[C@@H]1CC[C@@H](c2ccccc2)C1 [Compound F, 1-[(7S)-7-hydroxy-5,6,7,8-tetrahydronaphthalen-1-yl]-3-[(1R,3R)-3-phenylcyclopentyl]urea, reference compound]
30 | 653 nM | 47% |  | O=C(Nc1ccc2c(c1)NC(=O)N(CCO)C2)N[C@@H]1CC[C@@H](c2cccc(F)c2)C1 [Example 115, 1-[(1R,3R)-3-(3-fluorophenyl)cyclopentyl]-3-[3-(2-hydroxyethyl)-2-oxo-1,2,3,4-tetrahydroquinazolin-7-yl]urea]
31 | 292 nM | 11% |  | O=C(Nc1cccc2[nH]ncc12)N[C@H]1CCC[C@H](c2ccccc2)C1 [Example 35, 1-(1H-indazol-4-yl)-3-[(1S,3S)-3-phenylcyclohexyl]urea]
32 | 37 nM | 11% |  | O=C(Nc1cccc2[nH]ncc12)N[C@@H]1C[C@H](c2ccccc2)[C@@H]2C[C@@H]21 [Example 55, 1-(1H-indazol-4-yl)-3-((1S,2R,4S,5S)-4-phenylbicyclo[3.1.0]hex-2-yl)urea]
33 | > 37500 nM | 56% |  | CN1C(=O)CCc2ccc(NC(=O)N[C@@H]3CC[C@H](c4ccccc4)C3)cc21 [Example 77, 1-(1-methyl-2-oxo-1,2,3,4-tetrahydroquinolin-7-yl)-3-[(1R,3S)-3-phenylcyclopentyl]urea]
